Experimental data from patent publication US20130005696A1, “BUFADIENOLIDE DERIVATIVES, PREPARING PROCESS THEREOF, COMPOSITION COMPRISING THE SAME AND THE USE THEREOF” (priority 2011, published 2013).
Read-outs that look alike come from different tables or passages of the source.

Key:
[1] = test system: HT1080 human fibrosarcoma cell line; assay: In vitro antitumor activity assay (SRB), HT1080; format: cell-based; conditions: HT1080, 72 h, Table 3
Source text: (§1) HeLa human cervical carcinoma cell line, A-549 human non-small cell lung carcinoma cell line, NCI-H2228 human lung carcinoma cell line, NCI-H460 human lung carcinoma cell line, MDA-MB-231 human breast carcinoma cell line, MCF-7 human breast carcinoma cell line, Bel-7402 human hepatic carcinoma cell line, Hep3B human hepatic carcinoma cell line, QGY-7703 human hepatic carcinoma cell line, MV-4-11 human leukemic cell line, DAUDI human leukemic cell line, Jurkat human leukemic cell line, A498 renal carcinoma cell line, LoVo human colon carcinoma cell line, HCT1116 human colon carcinoma cell line, A431 human skin carcinoma cell line, PANC-1 human pancreatic carcinoma cell line, U87-MG human brain carcinoma cell line, SH-SY5Y human brain carcinoma cell line, RPMI-8226 human bone carcinoma cell line, HT1080 human fibrosarcoma cell line, PC-3 human prostatic carcinoma cell line, AGS human gastric adenocarcinoma cell line, and BGC-823 human gastric adenocarcinoma cell line were purchased from the Cell Bank of the Chinese Academy of Sciences.
(§2) The positive control is bufalin (formulated according to the common method), its purity is 98% or more by HPLC-UV and its structure is identified by NMR. The compounds to be tested and the positive control were diluted with normal saline with a concentration gradient of 10^−4 M, 10^−5 M, 10^−6 M, 10^−7 M and 10^−8 M.
(§3) According to cell growth rate, tumor cells in the log phase of growth were seeded into 96-well culture plates at 100 μL per well, and allowed to attach for 24 hours, followed by addition of a test compound or positive control at 10 μL per well. For each concentration, the test was carried out in triplicate wells. […] Finally, Tris solution was added at 150 μL per well, and the absorbance (A) was measured at a wavelength of 515 nm using a microplate reader. The growth inhibition on tumor cell proliferation was calculated according to the following equation:
(§4) Growth Inhibition (%)=[(Absorbance of negative control−Absorbance of blank)−(Absorbance of sample−Absorbance of blank)]/(Absorbance of negative control−Absorbance of blank)×100% […]

[2] = test system: PC-3 human prostatic carcinoma cell line; assay: In vitro antitumor activity assay (SRB), PC-3; format: cell-based
Source text: as §1, §2
(§5) According to cell growth rate, tumor cells in the log phase of growth were seeded into 96-well culture plates at 100 μL per well, and allowed to attach for 24 hours, followed by addition of a test compound or positive control at 10 μL per well. For each concentration, the test was carried out in triplicate wells. Solvent control wells with addition of normal saline into cell culture and a blank well containing only cell culture medium but without cells for zeroing were also included. The tumor cells were incubated for 72 hours at 37° C. under 5% CO2, and then the culture medium (RPMI-1640) was removed. The cells were fixed with 10% cool TCA by incubating for 1 h at 4° C., washed with distilled water for 5 times, and dried naturally in the air. A solution of SRB (Sigma) (4 mg/mL) in 1% glacial acetic acid was added at 100 μL per well, and the cells were stained for 15 minutes at room temperature, and the supernatant was discarded. The plates were washed for 5 times with 1% acetic acid, and dried in air. Finally, Tris solution was added at 150 μL per well, and the absorbance (A) was measured at a wavelength of 515 nm using a microplate reader. The growth inhibition on tumor cell proliferation was calculated according to the following equation:
(§6) Growth Inhibition (%)=[(Absorbance of negative control−Absorbance of blank)−(Absorbance of sample−Absorbance of blank)]/(Absorbance of negative control−Absorbance of blank)×100%
(§7) Drug concentration: 10 μM, 1 μM, 0.1 μM, 10 nM, 1 nM, 0.1 nM.
(§8) IC50 was fitted by GraphPad Prism 4.

[3] = test system: MCF-7 human breast carcinoma cell line; assay: In vitro antitumor activity assay (SRB), MCF-7; format: cell-based
Source text: as §1, §2, §5, §6, §7, §8

[4] = test system: NCI-H460 human lung carcinoma cell line; assay: In vitro antitumor activity assay (SRB), NCI-H460; format: cell-based; conditions: NCI-H460, 72 h, Table 3
Source text: as §1, §2, §3, §4

[5] = test system: QGY-7703 human hepatic carcinoma cell line; assay: In vitro antitumor activity assay (SRB), QGY7703; format: cell-based; conditions: QGY7703, 72 h, Table 3
Source text: as §1, §2, §3, §4

[6] = In vivo acute toxicity assay in mouse; conditions: for LD50: in vivo, ip
Protocol: Sample Name: bufalin, II1E-01.HCl
35.8 mg of II1E-01.HCl was weighted, added with 1.78 mL of anhydrous ethanol, and dissolved completely under ultrasonication. 16.02 mL of 5% glucose injection was added and agitated homogeneously. The solution was filtered with a 0.2 μm filtration membrane to obtain a stock solution with a concentration of 2 mg/mL, wherein the content of ethanol is 10%. The highest dosage is 20 mg/kg, calculated based on the administration volume of 0.1 mL/10 g body weight of mouse.

[7] = test system: DAUDI human leukemic cell line; assay: In vitro antitumor activity assay (SRB), Daudi; format: cell-based; conditions: 72 h, Table 3
Source text: as §1, §2, §3, §4

[8] = test system: Jurkat human leukemic cell line; assay: In vitro antitumor activity assay (SRB), Jurkat; format: cell-based; conditions: 72 h, Table 3
Source text: as §1, §2, §3, §4

[9] = test system: HCT-116 human-derived tumor cell line; assay: In vitro antitumor activity assay (SRB), HCT-116; format: cell-based; conditions: HCT-116, 72 h, Table 3
Source text: as §1, §2, §3, §4

[10] = test system: BGC-823 human gastric adenocarcinoma cell line; assay: In vitro antitumor activity assay (SRB), BGC-823; format: cell-based; conditions: BGC-823, 72 h, Table 3
Source text: as §1, §2, §3, §4

## C[C@]12CC[C@H](OC(=O)NC3CCNCC3)C[C@H]1CC[C@@H]1[C@@H]2CC[C@]2(C)[C@@H](c3ccc(=O)oc3)CC[C@]12O.Cl [II1E-01•HCl]
[1]
  IC50: 2.34 ± 0.1 nM
[2]; PC-3, 72 h, Table 3, read-out: IC50 (72 h), PC-3
  IC50: 0.3 ± 0.08 nM
[3]; MCF-7, 72 h, Table 3, read-out: IC50 (72 h), MCF-7
  IC50: 10.8 ± 1.08 nM
[4]
  IC50: 0.67 ± 0.03 nM
[5]
  IC50: 1.72 ± 0.08 nM
[6]; intraperitoneal, female mouse
  LD50 of intraperitoneal administration, female mouse: about 18.21 mg/kg
[6]; intraperitoneal, male mouse
  LD50 of intraperitoneal administration, male mouse: about 14.75 mg/kg
[6]; intravenous, female mouse
  LD50 of intravenous administration, female mouse: about 16.51 mg/kg
[6]; intravenous, male mouse
  LD50 of intravenous administration, male mouse: about 13.60 mg/kg
[6]; mouse
  in vivo acute toxicity in mouse compared with bufalin, in words: lower in vivo acute toxicity in mouse than bufalin
[7]
  IC50: 2.34 ± 0.22 nM
[8]
  IC50: 0.67 ± 0.1 nM
[9]
  IC50: 2.13 ± 0.28 nM
[10]
  IC50: 0.56 ± 0.07 nM

## C[C@]12CC[C@H](O)C[C@H]1CC[C@@H]1[C@@H]2CC[C@]2(C)[C@@H](c3ccc(=O)oc3)CC[C@]12O [bufalin, reference compound]
[1]; Homo sapiens, HT-1080
  IC50: 11.3 ± 0.38 nM
[2]; Homo sapiens, Prostatic carcinoma cell, PC-3, 72 h, Table 3, read-out: IC50 (72 h), PC-3
  IC50: 5 ± 0.45 nM
[2]; Homo sapiens, Prostatic carcinoma cell, PC-3, Table 2, read-out: IC50, inhibition of cell proliferation, PC-3
  IC50: 17.3 ± 2.76 nM
[3]; Homo sapiens, MCF7, MCF-7, 72 h, Table 3, read-out: IC50 (72 h), MCF-7
  IC50: 45.9 ± 5.18 nM
[3]; Homo sapiens, MCF7, MCF-7, Table 2, read-out: IC50, inhibition of cell proliferation, MCF-7
  IC50: 28.8 ± 3.71 nM
[4]; Homo sapiens
  IC50: 6.89 ± 0.87 nM
[5]; Homo sapiens, QGY-7703
  IC50: 12.8 ± 0.47 nM
[6]; intraperitoneal, female mouse, read-out: LD50 of intraperitoneal administration, female mouse
  LD50: ~2.8 mg/kg
[6]; intraperitoneal, male mouse, read-out: LD50 of intraperitoneal administration, male mouse
  LD50: ~2.4 mg/kg
[7]; Homo sapiens
  IC50: 12.6 ± 0.76 nM
[8]; Homo sapiens
  IC50: 8.79 ± 2.48 nM
[9]; Homo sapiens
  IC50: 9.69 ± 0.64 nM
[10]; Homo sapiens
  IC50: 9.06 ± 0.37 nM
